# Experimental data reported in patent US20180201647A1, “Peptoid” (The University of Durham, priority 2015, published 2018).
# Where two headings read alike, the source gives them in different places. Where a SMILES comes first, the peptide text is derived from it. [ ]: non-standard residue; d: D form. Nspe = C[C@H](NCC(=O)O)c1ccccc1; NhArg = N=C(N)NCCCCNCC(=O)O; Nlys = NCCCCNCC(=O)O
# Key:
# Format in all cases: cell-based
# [1] = test system: T. cruzi Tulahuen strain C2C4; test: microbe, parasite or virus in culture; conditions: for IC50: in L-6 cells, 96 h, read-out: IC50 T. cruzi; for active against T. cruzi: statement in words
# Procedure: Rat skeletal myoblasts (L-6 cells) were seeded in 96-well microtitre plates at 2000 cells/well in 100 μL RPMI 1640 medium with 10% FBS and 2 mM 1-glutamine. After 24 h the medium was removed and replaced by 100 μl per well containing 5000 trypomastigote forms of T. cruzi Tulahuen strain C2C4 containing the β-galactosidase (Lac Z) gene. After 48 h the medium was removed from the wells and replaced by 100 μl fresh medium with or without a serial drug dilution of eleven 3-fold dilution steps covering a range from 100 to 0.002 μg/ml. After 96 h of incubation the plates were inspected under an inverted microscope to assure growth of the controls and sterility. Then the substrate CPRG/Nonidet (50 μl) was added to all wells. A color reaction developed within 2-6 h and could be read photometrically at 540 nm. Data were analyzed with the graphic programme Softmax Pro (Molecular Devices), which calculated IC50 values by linear regression from the sigmoidal dose inhibition curves. Benznidazole is used as control (IC50 0.5+0.2 μg/ml).
# [2] = test system: L. donovani strain MHOM/ET/67/L82 axenic amastigotes; conditions: for active against L. donovani: statement in words; for IC50: strain MHOM/ET/67/L82 axenic amastigotes, 70 h
# Procedure: Amastigotes of L. donovani strain MHOM/ET/67/L82 were grown in axenic culture at 37° C. in SM medium^24 at pH 5.4 supplemented with 10% heat-inactivated fetal bovine serum under an atmosphere of 5% CO2 in air. One hundred microlitres of culture medium with 10^5 amastigotes from axenic culture with or without a serial drug dilution were seeded in 96-well microtitre plates. Serial drug dilutions of eleven 3-fold dilution steps covering a range from 90 to 0.002 μg/ml were prepared. After 70 h of incubation the plates were inspected under an inverted microscope to assure growth of the controls and sterile conditions. 10 μl of Alamar Blue (12.5 mg resazurin dissolved in 100 ml distilled water) were then added to each well and the plates incubated for another 2 h. Then the plates were read with a Spectramax Gemini XS microplate fluorometer (Molecular Devices Cooperation, Sunnyvale, Calif., USA) using an excitation wave length of 536 nm and an emission wave length of 588 nm. Data were analyzed using the software Softmax Pro (Molecular Devices Cooperation, Sunnyvale, Calif., USA). Decrease of fluorescence (=inhibition) was expressed as percentage of the fluorescence of control cultures and plotted against the drug concentrations. From the sigmoidal inhibition curves the IC50 values were calculated.
# [3] = test system: Leishmania mexicana (M379); conditions: for IC50: parasite stage not given, read-out: IC50 L. mexicana; for active against L. mexicana: statement in words
# Procedure: Leishmania mexicana (M379) promastigote parasites were maintained at 26° C. in Schneider's Insect medium (Sigma-Aldrich) supplemented with heat-inactivated foetal bovine sera (FBS, 15%; Biosera Ltd). Cells were counted using a Neubauer Improved Haemocytometer. Promastigotes were transformed into axenic amastigotes by a pH and temperature shift as previously described. A culture of recently transformed (three days) promastigotes in the late log phase was transferred into Schneider's Insect medium supplemented with 20% heat-inactivated FBS (pH 5.5) at 5×10^5 parasites/mL. After 6 days, the parasites were in the metacyclic stage and used for transformation to amastigote-like forms by transfer in the same medium at 32° C. at 5×10^5 parasites/mL. After additional 5-7 days, the parasites should be in the amastigote stage and be ready for cytotoxicity studies and infections.
# Cytotoxicity analyses were performed in 96-well plates (Costar, Fisher Scientific) using Alamar Blue (Invitrogen) for cell viability detection as previously described.
# Promastigote and amastigote L. mexicana were pre-incubated with the compounds in triplicate (5 mM stock solutions in DMSO; Amphotericin B was used as a positive control; untreated parasites with DMSO as a negative control) in 50 μl of the corresponding media at 4×106 mL-1 for 1 hour. Afterwards, 40 μl were removed from each well before the addition of 90 μl of the corresponding media, followed by incubation for 24 hours at 4×105 mL-1. Then, 10 μl Alamar Blue solution (Invitrogen) was added to each well for an incubation of 4 hours prior to assessing cell viability using a fluorescent plate reader (Biotek; Ex 560 nm/Em 600 nm). To investigate the effects of serum on the efficacy of the peptoids, the assay described above was modified using serum-free medium for the pre-incubation time. For these assays, the parasites were washed three times in serum-free medium before adding them to the compound solutions. All of the experiments described above were carried out on a minimum of two separate occasions to ensure a robust data set was collected.
# [4] = test system: Escherichia coli K12 W3110
# Procedure: (§1) Species used in MIC assays included gram-negative Escherichia coli K12 W3110, Pseudomonas aeruginosa laboratory strain PAO2 and Serratia marcescens laboratory strain and gram-positive Staphylococcus aureus NCTC 6571 and Micrococcus luteus laboratory strain.
# (§2) Bacterial cultures were prepared by streaking the bacterial strains on to agar plates with an inoculation loop and incubating overnight at 37° C. A single colony was then selected and placed in 5 mL of Iso-Sensitest broth using an inoculation loop and incubated at 37° C. with shaking overnight.
# (§3) MIC values were attained according to the protocol described by J. M. Andrews et al. [J. M. Andrews, J. Antimicrob. Chemother., 2001, 48, 5-16] and were conducted in 96-well microtitre plates in triplicate. 10-50 μL of each overnight culture was inoculated into 1.2 mL of Iso-Sensitest broth and grown at 37° C. with shaking. […] The inoculum was diluted ten-fold with Iso-Sensitest broth before use (to ˜10^3 cfu/spot). Peptide solutions were initially dissolved in DMSO (5 mg mL^−1) and then diluted further with Iso-Sensitest broth to achieve a concentration range of 4 mgL^−1 to 512 mgL^−1 using 2-fold serial dilutions. Samples were vortexed between dilutions where necessary to aid dissolution. 50 μL of inoculum and 50 μL of peptide solution were added to each test well to achieve a final concentration range of 2 mgL^−1 to 256 mgL^−1. Separate dilutions of ampicillin and DMSO were made up in a similar manner to act as a positive antibacterial control and a +DMSO control, respectively. 50 μL of inoculum and 50 μL of Iso-Sensitest broth were used as a positive control and 100 μL of inoculum was used as a negative control. Positive and negatives controls were conducted multiple times in parallel per plate. […] Quantitative data were attained as A650nm values using a BioTek® Synergy™ H4 Hybrid Multi-Mode Microplate Reader.
# [5] = test system: Pseudomonas aeruginosa laboratory strain PAO2
# Procedure: as §1, §2, §3
# [6] = test system: Staphylococcus aureus NCTC 6571
# Procedure: as §1, §2, §3
# [7] = test system: Serratia marcescens laboratory strain; conditions: 16 h
# Procedure: as §1, §2, §3
# [8] = second figure of cell, 37° C., 16 h, Iso-Sensitest broth
# [9] = second figure of cell, 37° C., Iso-Sensitest broth
smiles,measurement,setting,value
"C[C@@H](c1ccccc1)N(CC(N)=O)C(=O)CN(C(=O)CN(CCCCNC(=N)N)C(=O)CN(C(=O)CN(C(=O)CN(CCCCNC(=N)N)C(=O)CN(C(=O)CN(C(=O)CN(CCCCN)C(=O)CN(C(=O)CN(C(=O)CNCCCCN)[C@@H](C)c1ccccc1)[C@@H](C)c1ccccc1)[C@@H](C)c1ccccc1)[C@@H](C)c1ccccc1)[C@@H](C)c1ccccc1)[C@@H](C)c1ccccc1)[C@@H](C)c1ccccc1 [Peptoid 1, (NLys-Nspe-Nspe)2(NhArg-Nspe-Nspe)2] (H-[Nlys][Nspe][Nspe][Nlys][Nspe][Nspe][NhArg][Nspe][Nspe][NhArg][Nspe][Nspe]-NH2; N-terminus assumed)",IC50,[1],12.3 µM
same,active against T. cruzi,[1],active
same,active against L. donovani,[2],active
same,IC50,[2],11.1 µM
same,IC50,[3],37 µM
same,active against L. mexicana,[3],active
same,MIC E. coli,"[4]; K12, 16 h",17 µM
same,MIC E. coli,[4]; [8],32 mgL^−1
same,MIC P. aeruginosa,"[5]; laboratory strain PAO2, 16 h",34 µM
same,MIC P. aeruginosa,[5]; [8],64 mgL^−1
same,MIC S. aureus,"[6]; NCTC 6571, 16 h",17 µM
same,MIC S. aureus,[6]; [8],32 mgL^−1
same,MIC S. marcescens,[7]; laboratory strain,134 µM
same,MIC S. marcescens,[7]; [9],256 mgL^−1
"C[C@@H](c1ccccc1)N(CC(N)=O)C(=O)CN(C(=O)CN(CCCCN)C(=O)CN(C(=O)CN(C(=O)CN(CCCCNC(=N)N)C(=O)CN(C(=O)CN(C(=O)CN(CCCCN)C(=O)CN(C(=O)CN(C(=O)CNCCCCNC(=N)N)[C@@H](C)c1ccccc1)[C@@H](C)c1ccccc1)[C@@H](C)c1ccccc1)[C@@H](C)c1ccccc1)[C@@H](C)c1ccccc1)[C@@H](C)c1ccccc1)[C@@H](C)c1ccccc1 [Peptoid 4, [(NhArg-Nspe-Nspe)(NLys-Nspe-Nspe)]2] (H-[NhArg][Nspe][Nspe][Nlys][Nspe][Nspe][NhArg][Nspe][Nspe][Nlys][Nspe][Nspe]-NH2; N-terminus assumed)",IC50,[1],21.5 µM
same,active against T. cruzi,[1],active
same,active against L. donovani,[2],active
same,IC50,[2],19.9 µM
same,IC50,[3],37 µM
same,active against L. mexicana,[3],active
same,MIC E. coli,"[4]; K12, 16 h",17 µM
same,MIC E. coli,[4]; [8],32 mgL^−1
same,MIC P. aeruginosa,"[5]; laboratory strain PAO2, 16 h",67 µM
same,MIC P. aeruginosa,[5]; [8],128 mgL^−1
same,MIC S. aureus,"[6]; NCTC 6571, 16 h",17 µM
same,MIC S. aureus,[6]; [8],32 mgL^−1
same,MIC S. marcescens,[7]; laboratory strain,> 134 µM
same,MIC S. marcescens,[7]; [9],> 256 mgL^−1
